Source: ChEMBL document CHEMBL4052645, “Discovery of potent and efficacious pyrrolopyridazines as dual JAK1/3 inhibitors” (Bioorg Med Chem Lett, 2017)

Assays:
[1] = target: Tyrosine-protein kinase JAK3 (Homo sapiens) (UniProt P52333); experiment: Inhibition of human JAK3 D2 domain (I781 to S1124 residues) expressed in mammalian expression system assessed as residual activity at 50 nM by KINOMEscan assay relative to control
[2] = target: Serine/threonine-protein kinase 3 (Homo sapiens) (UniProt Q13188); experiment: Inhibition of human MST2 (D17 to E318 residues) expressed in bacterial expression system assessed as residual activity at 50 nM by KINOMEscan assay relative to control
[3] = target: 5'-AMP-activated protein kinase catalytic subunit alpha-2 (Homo sapiens) (UniProt P54646); experiment: Inhibition of wild-type human partial length AMPK alpha2 (M1 to E306 residues) expressed in bacterial expression system assessed as residual activity at 50 nM by Kinomescan method relative to control
[4] = target: Uncharacterized serine/threonine-protein kinase SBK3 (Homo sapiens) (UniProt P0C264); experiment: Inhibition of wild-type human partial length SGK110 (L22 to R329 residues) expressed in bacterial expression system assessed as residual activity at 50 nM by Kinomescan method relative to control
Sequence of Uncharacterized serine/threonine-protein kinase SBK3 (Homo sapiens) (P0C264 whole entry, the tested form may be a part): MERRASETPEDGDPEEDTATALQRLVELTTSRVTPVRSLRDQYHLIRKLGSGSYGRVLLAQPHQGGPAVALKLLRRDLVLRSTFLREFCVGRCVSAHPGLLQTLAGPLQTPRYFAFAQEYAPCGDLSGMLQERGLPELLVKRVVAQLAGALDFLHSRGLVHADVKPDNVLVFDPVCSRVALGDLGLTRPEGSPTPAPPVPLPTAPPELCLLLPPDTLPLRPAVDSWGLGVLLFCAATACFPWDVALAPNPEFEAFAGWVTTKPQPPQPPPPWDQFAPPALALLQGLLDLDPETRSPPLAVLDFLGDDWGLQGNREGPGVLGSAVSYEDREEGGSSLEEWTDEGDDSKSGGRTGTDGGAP

[5] = target: Aurora kinase B (Homo sapiens) (UniProt Q96GD4); experiment: Inhibition of wild-type human partial length AURB (D25 to A303 residues) expressed in mammalian expression system assessed as residual activity at 50 nM by Kinomescan method relative to control
[6] = target: G protein-coupled receptor kinase 4 (Homo sapiens) (UniProt P32298); experiment: Inhibition of wild-type human full length GPRK4 (M1 to C578 residues) expressed in bacterial expression system assessed as residual activity at 50 nM by Kinomescan method relative to control
Sequence of G protein-coupled receptor kinase 4 (Homo sapiens) (P32298 whole entry, looked up, the tested form may be a part): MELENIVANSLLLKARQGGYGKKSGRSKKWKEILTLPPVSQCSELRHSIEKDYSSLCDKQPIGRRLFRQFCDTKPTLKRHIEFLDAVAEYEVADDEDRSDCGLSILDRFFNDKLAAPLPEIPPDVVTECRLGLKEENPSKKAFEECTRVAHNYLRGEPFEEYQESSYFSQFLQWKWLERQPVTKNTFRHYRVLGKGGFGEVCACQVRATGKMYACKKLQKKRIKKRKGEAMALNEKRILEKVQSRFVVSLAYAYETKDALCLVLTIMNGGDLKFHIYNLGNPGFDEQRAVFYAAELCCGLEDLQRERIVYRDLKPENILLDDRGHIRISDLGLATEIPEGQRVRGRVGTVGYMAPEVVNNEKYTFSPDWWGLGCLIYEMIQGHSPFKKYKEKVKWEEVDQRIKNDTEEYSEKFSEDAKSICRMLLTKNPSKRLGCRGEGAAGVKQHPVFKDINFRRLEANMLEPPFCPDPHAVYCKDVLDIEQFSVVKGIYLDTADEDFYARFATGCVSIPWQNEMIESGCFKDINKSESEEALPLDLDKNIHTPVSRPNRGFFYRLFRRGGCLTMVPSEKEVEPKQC

[7] = target: Membrane-associated tyrosine- and threonine-specific cdc2-inhibitory kinase (Homo sapiens) (UniProt Q99640); experiment: Inhibition of wild-type human partial length MYT1 (A88 to G366 residues) expressed in bacterial expression system assessed as residual activity at 50 nM by Kinomescan method relative to control
Sequence of Membrane-associated tyrosine- and threonine-specific cdc2-inhibitory kinase (Homo sapiens) (Q99640 whole entry, the tested form may be a part): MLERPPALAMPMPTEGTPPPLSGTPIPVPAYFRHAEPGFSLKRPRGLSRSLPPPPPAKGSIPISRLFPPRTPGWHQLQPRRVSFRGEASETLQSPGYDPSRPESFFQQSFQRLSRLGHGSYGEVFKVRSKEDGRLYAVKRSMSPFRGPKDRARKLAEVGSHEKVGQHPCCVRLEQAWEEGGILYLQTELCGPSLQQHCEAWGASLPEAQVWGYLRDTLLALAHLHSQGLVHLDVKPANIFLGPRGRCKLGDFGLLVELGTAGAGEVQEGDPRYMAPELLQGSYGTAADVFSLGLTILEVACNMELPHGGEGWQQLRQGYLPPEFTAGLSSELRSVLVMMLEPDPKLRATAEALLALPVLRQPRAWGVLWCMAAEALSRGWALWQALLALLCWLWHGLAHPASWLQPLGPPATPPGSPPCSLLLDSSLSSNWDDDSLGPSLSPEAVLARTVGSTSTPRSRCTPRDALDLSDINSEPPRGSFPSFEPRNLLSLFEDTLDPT

[8] = target: Mitogen-activated protein kinase kinase kinase kinase 5 (Homo sapiens) (UniProt Q9Y4K4); experiment: Inhibition of recombinant human KHS1 (M1 to P297 residues) expressed in bacterial expression system assessed as residual activity at 50 nM by Kinomescan method relative to control
[9] = target: Tyrosine-protein kinase SYK (Homo sapiens) (UniProt P43405); experiment: Inhibition of wild-type human partial length SYK (D354 to N635 residues) expressed in bacterial expression system assessed as residual activity at 50 nM by Kinomescan method relative to control
[10] = target: Tyrosine-protein kinase ITK/TSK (Homo sapiens) (UniProt Q08881); experiment: Inhibition of wild-type human partial length ITK (R335 to L620 residues) expressed in bacterial expression system assessed as residual activity at 50 nM by Kinomescan method relative to control
[11] = target: Casein kinase I isoform epsilon (Homo sapiens) (UniProt P49674); experiment: Inhibition of wild-type human full length CK1E (M1 to K416 residues) expressed in bacterial expression system assessed as residual activity at 50 nM by Kinomescan method relative to control
[12] = target: Ephrin type-B receptor 4 (Homo sapiens) (UniProt P54760); experiment: Inhibition of wild-type human partial length EPHB4 (H585 to G892 residues) expressed in bacterial expression system assessed as residual activity at 50 nM by Kinomescan method relative to control
[13] = target: Tyrosine-protein kinase Fyn (Homo sapiens) (UniProt P06241); experiment: Inhibition of wild-type human partial length FYN (T243 to L534 residues) expressed in bacterial expression system assessed as residual activity at 50 nM by Kinomescan method relative to control
Sequence of Tyrosine-protein kinase Fyn (Homo sapiens) (P06241 2-537 limits assumed): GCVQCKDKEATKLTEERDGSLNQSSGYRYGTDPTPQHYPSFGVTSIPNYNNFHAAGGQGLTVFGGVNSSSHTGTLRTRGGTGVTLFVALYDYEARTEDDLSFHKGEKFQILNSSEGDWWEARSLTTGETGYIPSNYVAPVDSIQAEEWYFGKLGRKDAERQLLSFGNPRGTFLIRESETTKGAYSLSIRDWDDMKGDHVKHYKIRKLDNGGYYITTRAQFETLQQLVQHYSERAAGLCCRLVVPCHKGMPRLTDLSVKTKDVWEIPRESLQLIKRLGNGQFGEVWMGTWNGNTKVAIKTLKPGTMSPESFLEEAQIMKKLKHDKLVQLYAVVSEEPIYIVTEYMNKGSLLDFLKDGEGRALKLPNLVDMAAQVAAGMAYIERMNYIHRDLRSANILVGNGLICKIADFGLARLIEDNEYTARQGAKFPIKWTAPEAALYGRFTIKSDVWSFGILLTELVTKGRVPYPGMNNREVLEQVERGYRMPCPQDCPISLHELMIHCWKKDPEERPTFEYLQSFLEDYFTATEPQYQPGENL

[14] = target: Tyrosine-protein kinase ABL1 (Homo sapiens) (UniProt P00519); experiment: Inhibition of wild-type human phosphorylated ABL1 (S229 to K512 residues) expressed in mammalian expression system assessed as residual activity at 50 nM by Kinomescan method relative to control
[15] = target: Myosin light chain kinase (Homo sapiens) (UniProt Q32MK0); experiment: Inhibition of wild-type human partial length CAMLCK (D488 to K800 residues) expressed in bacterial expression system assessed as residual activity at 50 nM by Kinomescan method relative to control
[16] = target: Cyclin-dependent kinase 8 (Homo sapiens) (UniProt P49336); experiment: Inhibition of wild-type human partial length CDK8 (M1 to T360 residues) expressed in bacterial expression system assessed as residual activity at 50 nM by Kinomescan method relative to control
Sequence of Cyclin-dependent kinase 8 (Homo sapiens) (P49336 whole entry, the tested form may be a part): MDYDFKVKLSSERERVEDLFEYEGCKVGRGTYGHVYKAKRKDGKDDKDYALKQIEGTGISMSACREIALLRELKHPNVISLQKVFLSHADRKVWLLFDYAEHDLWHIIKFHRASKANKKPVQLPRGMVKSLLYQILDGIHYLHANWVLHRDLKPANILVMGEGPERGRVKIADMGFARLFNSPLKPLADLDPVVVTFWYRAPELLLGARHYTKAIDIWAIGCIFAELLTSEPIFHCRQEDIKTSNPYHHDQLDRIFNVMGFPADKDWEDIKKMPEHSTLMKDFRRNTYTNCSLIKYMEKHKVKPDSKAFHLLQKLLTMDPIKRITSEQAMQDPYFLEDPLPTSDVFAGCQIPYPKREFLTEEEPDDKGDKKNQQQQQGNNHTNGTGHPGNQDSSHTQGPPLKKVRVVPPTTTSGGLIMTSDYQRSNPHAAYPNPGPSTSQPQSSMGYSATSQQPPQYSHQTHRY

[17] = target: Insulin receptor-related protein (Homo sapiens) (UniProt P14616); experiment: Inhibition of wild-type human partial length IRR (R950 to E1278 residues) expressed in bacterial expression system assessed as residual activity at 50 nM by Kinomescan method relative to control
[18] = target: Dual specificity mitogen-activated protein kinase kinase 7 (Homo sapiens) (UniProt O14733); experiment: Inhibition of wild-type human full length MAP2K7 (M1 to R419 residues) expressed in mammalian expression system assessed as residual activity at 50 nM by Kinomescan method relative to control
[19] = target: Mitogen-activated protein kinase kinase kinase 15 (Homo sapiens) (UniProt Q6ZN16); experiment: Inhibition of wild-type human partial length MAP3K15 (T625 to L932 residues) expressed in mammalian expression system assessed as residual activity at 50 nM by Kinomescan method relative to control
[20] = target: MAP kinase-interacting serine/threonine-protein kinase 2 (Homo sapiens) (UniProt Q9HBH9); experiment: Inhibition of wild-type human partial length MNK2 (G63 to S388 residues) expressed in mammalian expression system assessed as residual activity at 50 nM by Kinomescan method relative to control
Sequence of MAP kinase-interacting serine/threonine-protein kinase 2 (Homo sapiens) (Q9HBH9 whole entry, looked up, the tested form may be a part): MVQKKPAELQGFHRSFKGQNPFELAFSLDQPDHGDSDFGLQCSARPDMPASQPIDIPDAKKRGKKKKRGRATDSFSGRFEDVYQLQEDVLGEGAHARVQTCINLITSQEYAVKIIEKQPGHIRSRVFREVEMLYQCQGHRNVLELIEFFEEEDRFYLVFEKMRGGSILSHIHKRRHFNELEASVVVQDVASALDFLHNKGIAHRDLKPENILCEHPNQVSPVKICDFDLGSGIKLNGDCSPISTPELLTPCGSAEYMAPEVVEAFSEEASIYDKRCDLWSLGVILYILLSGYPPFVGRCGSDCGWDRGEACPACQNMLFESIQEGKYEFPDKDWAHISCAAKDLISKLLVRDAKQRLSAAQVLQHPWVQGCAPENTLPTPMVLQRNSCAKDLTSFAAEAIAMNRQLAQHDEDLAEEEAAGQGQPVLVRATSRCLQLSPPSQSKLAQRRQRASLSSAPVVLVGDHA

[21] = target: Cyclin-dependent kinase 16 (Homo sapiens) (UniProt Q00536); experiment: Inhibition of wild-type human partial length PCTAIRE1 (G160 to A474 residues) expressed in mammalian expression system assessed as residual activity at 50 nM by Kinomescan method relative to control
Sequence of Cyclin-dependent kinase 16 (Homo sapiens) (Q00536 whole entry, the tested form may be a part): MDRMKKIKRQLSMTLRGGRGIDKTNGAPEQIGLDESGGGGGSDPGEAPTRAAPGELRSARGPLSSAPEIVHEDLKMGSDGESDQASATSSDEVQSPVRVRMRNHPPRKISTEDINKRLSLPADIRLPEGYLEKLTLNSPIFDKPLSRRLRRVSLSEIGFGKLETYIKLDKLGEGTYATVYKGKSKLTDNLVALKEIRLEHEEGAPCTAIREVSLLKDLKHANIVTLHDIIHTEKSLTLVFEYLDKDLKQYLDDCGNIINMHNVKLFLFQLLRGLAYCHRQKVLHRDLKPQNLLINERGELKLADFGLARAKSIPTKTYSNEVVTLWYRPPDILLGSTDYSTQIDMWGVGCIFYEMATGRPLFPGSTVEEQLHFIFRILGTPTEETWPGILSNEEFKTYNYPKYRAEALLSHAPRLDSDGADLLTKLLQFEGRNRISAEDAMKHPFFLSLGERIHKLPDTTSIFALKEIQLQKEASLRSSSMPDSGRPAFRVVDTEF

[22] = target: Serine/threonine-protein kinase pim-2 (Homo sapiens) (UniProt Q9P1W9); experiment: Inhibition of wild-type human partial length PIM2 (M1 to E291 residues) expressed in bacterial expression system assessed as residual activity at 50 nM by Kinomescan method relative to control
Sequence of Serine/threonine-protein kinase pim-2 (Homo sapiens) (Q9P1W9 whole entry, looked up, the tested form may be a part): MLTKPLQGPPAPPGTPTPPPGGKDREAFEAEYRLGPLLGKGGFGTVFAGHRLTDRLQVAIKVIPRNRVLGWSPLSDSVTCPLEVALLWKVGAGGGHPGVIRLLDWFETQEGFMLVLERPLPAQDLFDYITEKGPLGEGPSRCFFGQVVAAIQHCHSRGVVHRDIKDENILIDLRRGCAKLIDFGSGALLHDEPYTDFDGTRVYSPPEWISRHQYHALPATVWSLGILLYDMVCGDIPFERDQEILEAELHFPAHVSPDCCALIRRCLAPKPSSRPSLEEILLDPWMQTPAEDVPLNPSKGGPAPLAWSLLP

[23] = target: Serine/threonine-protein kinase SBK1 (Homo sapiens) (UniProt Q52WX2); experiment: Inhibition of wild-type human partial length SBK1 (P23 to P348 residues) expressed in mammalian expression system assessed as residual activity at 50 nM by Kinomescan method relative to control
[24] = target: TGF-beta receptor type-2 (Homo sapiens) (UniProt P37173); experiment: Inhibition of wild-type human partial length TGFBR2 (I218 to K567 residues) expressed in bacterial expression system assessed as residual activity at 50 nM by Kinomescan method relative to control
Sequence of TGF-beta receptor type-2 (Homo sapiens) (P37173 whole entry, the tested form may be a part): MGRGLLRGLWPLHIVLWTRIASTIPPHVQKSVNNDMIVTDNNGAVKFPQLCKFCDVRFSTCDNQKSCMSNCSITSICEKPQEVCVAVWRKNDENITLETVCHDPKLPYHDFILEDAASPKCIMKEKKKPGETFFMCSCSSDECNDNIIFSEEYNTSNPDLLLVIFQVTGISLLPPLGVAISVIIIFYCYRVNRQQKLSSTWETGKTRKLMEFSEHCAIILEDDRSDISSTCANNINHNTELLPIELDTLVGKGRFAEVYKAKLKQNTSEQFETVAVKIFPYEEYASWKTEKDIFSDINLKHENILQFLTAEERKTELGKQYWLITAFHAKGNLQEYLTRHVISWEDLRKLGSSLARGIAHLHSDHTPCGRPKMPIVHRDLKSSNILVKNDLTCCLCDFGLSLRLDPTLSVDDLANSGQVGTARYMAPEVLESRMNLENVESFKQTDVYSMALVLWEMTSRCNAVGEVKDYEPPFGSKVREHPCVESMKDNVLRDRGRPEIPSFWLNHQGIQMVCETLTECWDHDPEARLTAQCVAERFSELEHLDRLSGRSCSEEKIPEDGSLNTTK

[25] = target: Serine/threonine-protein kinase 32C (Homo sapiens) (UniProt Q86UX6); experiment: Inhibition of wild-type human partial length YANK3 (M68 to G486 residues) expressed in bacterial expression system assessed as residual activity at 50 nM by Kinomescan method relative to control
Sequence of Serine/threonine-protein kinase 32C (Homo sapiens) (Q86UX6 whole entry, the tested form may be a part): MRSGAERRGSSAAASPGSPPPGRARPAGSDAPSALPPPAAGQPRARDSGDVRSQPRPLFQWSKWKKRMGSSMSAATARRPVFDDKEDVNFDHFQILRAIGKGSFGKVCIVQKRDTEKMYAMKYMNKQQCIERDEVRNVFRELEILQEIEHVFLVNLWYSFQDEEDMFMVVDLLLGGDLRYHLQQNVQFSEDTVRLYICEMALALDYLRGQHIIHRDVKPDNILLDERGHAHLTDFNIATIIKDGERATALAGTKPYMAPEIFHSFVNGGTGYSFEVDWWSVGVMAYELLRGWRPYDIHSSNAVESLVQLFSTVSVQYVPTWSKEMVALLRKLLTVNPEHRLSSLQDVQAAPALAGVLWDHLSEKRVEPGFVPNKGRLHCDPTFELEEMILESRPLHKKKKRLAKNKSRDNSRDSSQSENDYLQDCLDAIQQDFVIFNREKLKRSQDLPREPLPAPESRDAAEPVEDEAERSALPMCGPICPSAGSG

| Compound | Activity [1] | Activity [2] | Activity [3] | Activity [4] | Activity [5] | Activity [6] | Activity [7] | Activity [8] | Activity [9] | Activity [10] | Activity [11] | Activity [12] | Activity [13] | Activity [14] | Activity [15] | Activity [16] | Activity [17] | Activity [18] | Activity [19] | Activity [20] | also measured |
| --- | --- | --- | --- | --- | --- | --- | --- | --- | --- | --- | --- | --- | --- | --- | --- | --- | --- | --- | --- | --- | --- |
| COc1ccc(-c2cc3c(N[C@@H]4CC[C@](C)(N)C4(C)C)c(C(N)=O)cnn3c2)cn1 | 40% | 6% | 74% | 62% | 100% | 100% | 100% | 100% | 91% | 90% | 87% | 96% | 100% | 74% | 100% | 86% | 92% | 55% | 98% | 95% | Activity [21]: 89%; Activity [22]: 100%; Activity [23]: 72%; Activity [24]: 100%; Activity [25]: 100% |
| CC1(C)[C@H](Nc2c(C(N)=O)cnn3cc(-c4ccccc4)cc23)CC[C@]1(C)N | 3.8% | 6.2% | 38% | 41% | 64% | 64% | 79% | 80% | 82% | 89% | 92% | 99% | 99% | 100% | 100% | 100% | 100% | 100% | 100% | 100% | Activity [21]: 100%; Activity [22]: 100%; Activity [23]: 100%; Activity [24]: 100%; Activity [25]: 100% |
